From US20100278733A1, “COMPOSITION FOR DIAGNOSIS OF AMYLOID-RELATED DISEASE” (priority 2007, published 2010)

Key:
[1] = molecular target: T1, Aβ(1-42) aggregate (Homo sapiens, UniProt P05067); assay: Binding inhibition experiment using Aβ(1-42) aggregate, Ki values (Example 2); settings: compound numbers of Example 2; for binding affinity for the Aβ(1-42) aggregate: in words, derivatives with two substituents on Ring A; for Ki: radioactive ligand [^125I]CL-NMe2, mean ± standard error of 3 experiments (compound 4: 6 experiments), read-out: Ki values calculated by inhibition experiment
T1 construct: Amyloid β protein (Human, 1-42) [TFA form] was purchased from Peptide Institute, Inc; purchased Peptide Institute, Inc
T1 sequence (P05067 672-713 limits assumed): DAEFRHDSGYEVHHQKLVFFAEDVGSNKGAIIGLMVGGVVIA
Procedure: As a radioactive iodine-125 (^125I), Iodine-125 (3.7 GBq/mL) manufactured by MP Biomedicals, Inc. was used. Reverse phase HPLC was performed at a flow rate of 1.0 mL/min using a Cosmosil 5C18-AR-II column (4.6×150 mm) manufactured by Nacalai Tesque Inc. and ultrapure water:acetonitrile=3:7 as an elution solvent. ^1HNMR was measured using Varian Gemini 300 and tetramethylsilane as an internal standard substance. Mass spectrometry was performed using JEOL IMS-DX300. Preparative TLC was performed using 12 PLC plates 20×20-cm-Silica gel 60 F254, 2 mm manufactured by MERCK. Amyloid β protein (Human, 1-42) was purchased from Peptide Institute, Inc., and special grade reagents were used as other reagents.
Aβ(1-42) was dissolved in 10 mM phosphate buffer containing 1 mM EDTA (pH 7.4) at a concentration of 0.25 mg/mL, and the mixture was incubated at 37° C. for 42 h to prepare an Aβ(1-42) aggregate.
[…] of 10% EtOH solution, […] of a solution of [^125I]4-diethylamino-4′-iodochalcone ([^125I]CL-NMe2) in 10% ethanol, and […] of a sample solution at various concentrations (0 to 20 mM) were mixed, […] of an Aβ(1-42) aggregate solution was finally added, and the mixture was allowed to stand at room temperature for 3 h. Aβ(1-42) aggregate-bound compounds and nonbound compounds were separated with a Brandel M-24R cell harvester using a Whatman GF/B filter. Radioactivities remaining on the filter after filtration were measured with a γ-counter, and inhibition curves were created using Graph Pad Prism 4.0 to calculate inhibition constants (Ki values).

[2] = In-vivo radioactivity distribution experiment using normal mice (Example 2); settings: normal mice, intravenous, Example 2 numbering
Procedure: Radioactive iodine labeling compounds were diluted with physiological saline containing 10% EtOH. To each of four or five 5-week-old male ddY mice (20 to 25 g) per group, […] of a labeled compound, [^125I]Compound 7, 10, 13, or 14 (0.2 to 0.4 mCi), was administered from the caudal vein. Animals were decapitated at 2, 10, 30, or 60 min, blood was collected, the major organs were isolated, and then weights and radioactivities thereof were measured.

[3] = In-vivo radioactivity distribution experiment in mice (Reference Example 1); settings: intravenous, mean (standard deviation), Reference Example 1 numbering
Procedure: A radioactive iodine-labeled compound (Compound 7) was diluted with physiological saline containing 5 to 10% ethanol. Three to five 5-week-old male ddY mice (25 to 30 g) per group were decapitated at 2, 10, 30, or 60 min after intravenous administration of […] (0.5 to 1 μCi) of the labeled compound, blood was collected, organs were removed, and weights and radioactivities thereof were measured.

## COc1ccc(/C=C/C(=O)c2ccc(I)cc2)cc1O [Compound 41 in Example 2, 3-hydroxy-4′-iodo-4-methoxychalcone]
[1]
  binding affinity for the Aβ(1-42) aggregate: no compound showed a high binding affinity
  Ki: 157 ± 80.8 nM

## Nc1ccc(C(=O)C=Cc2ccc(Br)s2)cc1 [Compound 44 in Example 2, 3-(5-bromo-2-thienyl)-1-(4-aminophenyl)-prop-2-en-1-one]
[1]
  Ki: 476 ± 47.9 nM

## CN(C)c1ccc(C=CC(=O)c2ccc(I)s2)s1 [Compound 37 in Example 2, 3-(S-dimethylamino-2-thienyl)-1-(5-iodo-2-thienyl)-prop-2-en-1-one]
[1]
  Ki: 137 ± 3.4 nM

## CNc1ccc(C=CC(=O)c2ccc(I)cc2)cc1 [CL-NHMe, reference compound]
[1]
  Ki: 6.3 ± 1.6 nM

## CN(C)c1ccc(C=CC(=O)c2ccc(Br)o2)cc1 [Compound 32 in Example 2, 1-(5-bromo-2-furanyl)-3-(4-dimethylaminophenyl)-prop-2-en-1-one]
[1]
  Ki: 126 ± 12.5 nM

## COc1cc(/C=C/C(=O)c2ccc(I)cc2)ccc1O [Compound 40 in Example 2, 4-hydroxy-4′-iodo-3-methoxychalcone]
[1]
  binding affinity for the Aβ(1-42) aggregate: no compound showed a high binding affinity
  Ki: 1160 ± 154 nM

## CN(C)c1ccc(C=CC(=O)c2ccc(Br)o2)o1 [Compound 34 in Example 2, 1-(5-bromo-2-furyl)-3-(5-dimethylamino-2-furyl)-prop-2-en-1-one]
[1]
  Ki: > 10000 nM

## COc1ccc(/C=C/C(=O)c2ccc(I)cc2)cc1OC [Compound 42 in Example 2, 3,4-dimethoxy-4′-iodochalcone]
[1]
  binding affinity for the Aβ(1-42) aggregate: no compound showed a high binding affinity
  Ki: 223 ± 76.1 nM

## CNc1ccc(C(=O)/C=C/c2ccc(I)cc2)cc1 [Compound 7 in Example 2, 4-iodo-4′-methylaminochalcone]
[2]; 2 min
  In-vivo radioactivity distribution: blood: 1.76 (0.27) percent of the dose/g
  In-vivo radioactivity distribution: brain: 3.07 (0.57) percent of the dose/g
  In-vivo radioactivity distribution: heart: 5.00 (0.79) percent of the dose/g
  In-vivo radioactivity distribution: intestine: 2.52 (0.81) percent of the dose/g
  In-vivo radioactivity distribution: kidney: 6.20 (0.93) percent of the dose/g
  In-vivo radioactivity distribution: liver: 10.82 (2.61) percent of the dose/g
  In-vivo radioactivity distribution: lung: 11.10 (3.36) percent of the dose/g
  In-vivo radioactivity distribution: pancreas: 4.93 (1.01) percent of the dose/g
  In-vivo radioactivity distribution: spleen: 2.27 (0.48) percent of the dose/g
  In-vivo radioactivity distribution: stomach: 1.06 (0.67) percent of the dose
[2]; 10 min
  In-vivo radioactivity distribution: blood: 1.43 (0.30) percent of the dose/g
  In-vivo radioactivity distribution: brain: 2.03 (0.41) percent of the dose/g
  In-vivo radioactivity distribution: heart: 1.98 (0.24) percent of the dose/g
  In-vivo radioactivity distribution: intestine: 7.78 (1.31) percent of the dose/g
  In-vivo radioactivity distribution: kidney: 4.56 (0.67) percent of the dose/g
  In-vivo radioactivity distribution: liver: 9.42 (1.92) percent of the dose/g
  In-vivo radioactivity distribution: lung: 4.94 (1.73) percent of the dose/g
  In-vivo radioactivity distribution: pancreas: 2.99 (1.70) percent of the dose/g
  In-vivo radioactivity distribution: spleen: 1.47 (0.27) percent of the dose/g
  In-vivo radioactivity distribution: stomach: 0.87 (0.38) percent of the dose
[2]; 30 min
  In-vivo radioactivity distribution: blood: 1.15 (0.57) percent of the dose/g
  In-vivo radioactivity distribution: brain: 0.69 (0.09) percent of the dose/g
  In-vivo radioactivity distribution: heart: 0.98 (0.20) percent of the dose/g
  In-vivo radioactivity distribution: intestine: 17.52 (1.74) percent of the dose/g
  In-vivo radioactivity distribution: kidney: 3.92 (1.05) percent of the dose/g
  In-vivo radioactivity distribution: liver: 6.77 (1.21) percent of the dose/g
  In-vivo radioactivity distribution: lung: 2.22 (0.58) percent of the dose/g
  In-vivo radioactivity distribution: pancreas: 1.04 (0.35) percent of the dose/g
  In-vivo radioactivity distribution: spleen: 0.94 (0.48) percent of the dose/g
  In-vivo radioactivity distribution: stomach: 0.70(0.11) percent of the dose
[2]; 60 min
  In-vivo radioactivity distribution: blood: 1.51 (0.26) percent of the dose/g
  In-vivo radioactivity distribution: brain: 0.40 (0.08) percent of the dose/g
  In-vivo radioactivity distribution: heart: 0.82 (0.14) percent of the dose/g
  In-vivo radioactivity distribution: intestine: 18.47 (2.31) percent of the dose/g
  In-vivo radioactivity distribution: kidney: 4.04 (1.10) percent of the dose/g
  In-vivo radioactivity distribution: liver: 6.01 (1.81) percent of the dose/g
  In-vivo radioactivity distribution: lung: 1.57 (0.23) percent of the dose/g
  In-vivo radioactivity distribution: pancreas: 0.78 (0.16) percent of the dose/g
  In-vivo radioactivity distribution: spleen: 0.71 (0.19) percent of the dose/g
  In-vivo radioactivity distribution: stomach: 1.14 (0.48) percent of the dose

## COc1cc(/C=C/C(=O)c2cccc(I)c2)ccc1O [Compound 7 in Reference Example 1, (E)-3-(4-hydroxy-3-methoxyphenyl)-1-(3-iodophenyl)prop-2-en-1-one]
[3]; 2 min
  In-vivo distribution of radioactivity: Blood: 4.90 (0.52) percents of the dose/g
  In-vivo distribution of radioactivity: Brain: 2.52 (0.20) percents of the dose/g
  In-vivo distribution of radioactivity: Heart: 5.58 (0.99) percents of the dose/g
  In-vivo distribution of radioactivity: Intestines: 2.50 (0.31) percents of the dose/g
  In-vivo distribution of radioactivity: Kidneys: 11.99 (3.60) percents of the dose/g
  In-vivo distribution of radioactivity: Liver: 15.71 (1.27) percents of the dose/g
  In-vivo distribution of radioactivity: Spleen: 2.57 (0.42) percents of the dose/g
[3]; 10 min
  In-vivo distribution of radioactivity: Blood: 3.80 (0.91) percents of the dose/g
  In-vivo distribution of radioactivity: Brain: 1.28 (0.17) percents of the dose/g
  In-vivo distribution of radioactivity: Heart: 2.88 (1.02) percents of the dose/g
  In-vivo distribution of radioactivity: Intestines: 10.52 (1.82) percents of the dose/g
  In-vivo distribution of radioactivity: Kidneys: 9.16 (2.76) percents of the dose/g
  In-vivo distribution of radioactivity: Liver: 18.55 (2.68) percents of the dose/g
  In-vivo distribution of radioactivity: Spleen: 1.80 (0.30) percents of the dose/g
[3]; 30 min
  In-vivo distribution of radioactivity: Blood: 1.84 (0.31) percents of the dose/g
  In-vivo distribution of radioactivity: Brain: 0.40 (0.11) percents of the dose/g
  In-vivo distribution of radioactivity: Heart: 1.44 (0.34) percents of the dose/g
  In-vivo distribution of radioactivity: Intestines: 20.60 (6.13) percents of the dose/g
  In-vivo distribution of radioactivity: Kidneys: 5.00 (2.27) percents of the dose/g
  In-vivo distribution of radioactivity: Liver: 7.67 (1.68) percents of the dose/g
  In-vivo distribution of radioactivity: Spleen: 1.03 (0.04) percents of the dose/g
[3]; 60 min
  In-vivo distribution of radioactivity: Blood: 1.15 (0.44) percents of the dose/g
  In-vivo distribution of radioactivity: Brain: 0.35 (0.05) percents of the dose/g
  In-vivo distribution of radioactivity: Heart: 1.38 (0.34) percents of the dose/g
  In-vivo distribution of radioactivity: Intestines: 29.31 (3.26) percents of the dose/g
  In-vivo distribution of radioactivity: Kidneys: 4.31 (0.81) percents of the dose/g
  In-vivo distribution of radioactivity: Liver: 4.05 (0.61) percents of the dose/g
  In-vivo distribution of radioactivity: Spleen: 0.88 (0.15) percents of the dose/g
